The numbers were not newly measured in patent US4310517A, “Tumor-resolving and histolytic medicaments and their use” (Troponwerke GmbH & Co., KG, priority 1976, dated 1982), which cites them from elsewhere.

For this data set, the system named is tumour cells.

Molecules are shown by their SMILES. Like-named read-outs stand apart in the source and are kept apart here.

As to `O=P1(N(CCCl)CCCl)NCCCO1` (centres unmarked) [cyclophosphamide], the tumour cells destroyed is reported as 99.999% (LD10 dosage) and 90% (one eighth of the LD10 dose).
